“Also recorded” adds a separate entry of the source. Read-outs that look alike come from different tables or passages of the source.
Assays:
OVCAR-3 tumors = experiment: s.c. OVCAR-3 xenograft growth in nude mice; format: in vivo, female nude mice
Protocol: 2.5 million log-phase growing OVCAR-3 cells were injected s.c. into the left flank of each mouse. Tumor growth was monitored by caliper measurements and tumor volumes were determined through measuring orthogonal diameters. Estimated tumor volume was calculated based on the formula ½ (Length×Width2), where width is the shorter of the two orthogonal measurements. Treatment was initiated 7 days post tumor cell injection before which, mice were randomized and assigned to treatment or the control group (6 per group). […] Control group were treated with the vehicle only.
Log-phase growing OVCAR-3 cells were injected s.c. into the left flank of each mouse. Tumor growth was monitored by caliper measurements and tumor volumes were determined through measuring orthogonal diameters. Estimated tumor volume was calculated based on the formula ½ (Length×Width2), where width is the shorter of the two orthogonal measurements. Treatment was initiated 7 days post tumor cell injection before which, mice were randomized and assigned to treatment or the control group (6 per group). […] Control group were treated with the vehicle only.
OVCAR-3 cells were injected s.c. into the left flank of each mouse. Tumor growth was monitored by caliper measurements and tumor volumes were determined of orthogonal diameters, and the estimated tumor volume was calculated based on the formula ½ (Length×Width2), where width is the shorter of the two orthogonal measurements. Treatment was initiated 7 days post tumor cell injection before which, mice were randomized and assigned to treatment or the control group (6 per group). […] Control group were treated orally with the vehicle only.
Mice were inoculated in the left flank with 2.5 million log-phase growing human OVCAR-3 cells. Tumor growth was monitored by caliper measurements and tumor volumes were determined through measuring orthogonal diameters. Estimated tumor volume was calculated based on the formula ½ (Length×Width2), where width is the shorter of the two orthogonal measurements. Treatment was initiated 7 days post tumor cell injection before which, mice were randomized and assigned to treatment or the control group (5-6 per group).
Female nude mice (6 weeks old) were purchased from Biological Resources (Faculty of Medicine, University of New South Wales). An institutional animal ethics approval covered all procedures carried out on mice. […] Animals were weighed once weekly while their tumor volumes were determined twice weekly. Tumor growth was monitored by caliper measurements of orthogonal diameters, and the estimated tumor volume was calculated based on the formula ½ (Length×Width^2), where width is the shorter of the two orthogonal measurements. Based on institutional ethics approval, mice were euthanized before the tumor volume reached 500 mm^3. Treatment was initiated on day 8 after tumor cell injection when mice were randomized and assigned to treatment or the control group (6 per group). Monepantel was suspended in sterile 0.5% (w/v) hydroperoxymethyl cellulose (HPMC). Drug was administered i.p. 3 times weekly at 25 or 50 mg/kg. Control group was treated with sterile vehicle (0.5% HPMC). Mice were treated for a period of 3 weeks. Twenty four hours post-last drug administration, mice were euthanized and their tumors excised and frozen at −80° C. until analysis.
In alternative experiments, treatment was initiated on day 8 post tumor cell inoculation when mice were randomized and assigned to one of MPL or vehicle treated groups (5-6 mice per group). MPL was suspended in hydroperoxy methylcellulose (0.5% w/v HPMC), sterilized by sonnicator and administered every other day either intraperitoneally (i.p) or orally as gavage (100 μL).

OVCAR-3 or A2780 cells [1] = experiment: Cellular ATP and ADP/ATP ratio; format: cell-based, human
Protocol: ADP and ATP levels in the media were measured using the commercial colorimetric/fluorometric assay kits from Abcam together with the ApoGlow assay kit from Lonza (Sydney, Australia subsidary). Each value represents mean+s.e.m. of at least two determinations.

[2] = test system: HUVEC (human umbilical vein endothelial cells); experiment: SRB cell proliferation assay, HUVEC; format: cell-based
Protocol: (§1) Cell proliferation was assessed using the sulforhodamine B (SRB) assay. Cells seeded in 96-well plate (2,000-3,000 cell/well) were treated with MPL (0, 1, 5, 10, 25, 50 and 100 μmol/L) for 72 h. Cells were then fixed, washed and stained with 100 μl of 0.4% (w/v) SRB dissolved in 1% acetic acid. Unbound dye was removed by five washes with 1% acetic acid before air drying. Bound SRB was solubilized with 100 μl of 10 mM Tris base (pH 10.5) and the absorbance read at 570 nm. Exactly the same procedure was used to assess MPL-SO2. Both agents were dissolved in ethanol and diluted with media to give the final concentrations required for cell culture assays.

[3] = test system: A2780 ovarian cancer cells; experiment: Autophagy (vacuole formation), A2780; format: cell-based, human
From the text: (§2) Autophagy is a characteristic of mTOR inhibition.

A2780 cells = experiment: SRB cell proliferation assay, A2780; format: cell-based, human
Protocol: as §1

cancer cell lines = experiment: SRB cell proliferation assay, range of cancer cell lines (general statements); format: cell-based
Protocol: as §1
In brief, MPL and MPL-SO2 were tested in vitro against a wide range of cancer cell-lines with extensively different disease characteristics. For further detailed studies, human ovarian cancer cell lines OVCAR-3 and A2780 were chosen. Additionally, normal human ovarian surface epithelial cells (HOSE) and were cultured in the presence of MPL (0, 5, 10, 25, 50 and 100 μM) for 72 h. Cell viability was assessed using Trypan blue assay (FIG. 9). Similarly, effect of MPL on the growth of normal epithelial, endothelial, embryonic and fetal cells were investigated (FIG. 10) while cell proliferation was assessed using the SRB assay (FIG. 11). Control (vehicle treated) cells were taken to present 100% proliferation and the MPL treated groups are expressed as percentage of control±SEM. Each drug concentration was tested in quadruplicate and each experiment was repeated at least twice. For statistical comparisons, each drug treated group is compared to the control group using Student's t test. To examine concentration dependent drug effect, analysis of variance (ANOVA) was used. P values are: *=<0.05; **<0.01 and ***=<0.001, **** p<0.0001. […] In order to find out if the MPL effect is mediated through the nicotinic acetyl choline receptor and in particular the nACHR7 subtype, cells were pretreated with antagonists and then exposed to MPL (FIG. 12).

PET cells (mesothelioma) = experiment: SRB cell proliferation assay, PET; format: cell-based; conditions: for IC50: PET
Protocol: as §1

SKOV-3 cells = experiment: SRB cell proliferation assay, SKOV-3; format: cell-based; conditions: Homo sapiens, SK-OV-3
Protocol: as §1

3T3 fibroblast = experiment: SRB cell proliferation assay, 3T3; format: cell-based; conditions: 3T3, fibroblast (Table 2); read-out: IC50 in suppressing proliferation
Protocol: as §1

U87 glioma cells = experiment: Autophagy (vacuoles, LC3-II), U87; format: cell-based; conditions: chemo-resistant U87 glioma cells, concentration-dependent
From the text: as §2
Concentration-dependent conversion of LC3-I to LC3-II confirms the increasing phenomenon of autophagy in these cells.

1A9 cells = experiment: SRB cell proliferation assay, 1A9; format: cell-based; conditions: Homo sapiens
Protocol: as §1

[4] = cited from earlier work
OVCAR-3 or A2780 cells [5] = experiment: Cell cycle analysis by flow cytometry; format: cell-based, human
Protocol: OVCAR-3 (FIG. 3a) or A2780 (FIG. 3b) cells were treated with MPL (0, 5, 10 and 25 μmol/L) for 48 hours. Propodium iodide stained cells were analysed for DNA content using flow cytometric analysis. The results (see table) are shown as a percentage of cells in G1, S and G2/M phases. Each value represents mean±SEM of 2 independent experiments.
OVCAR-3 or A2780 cells were treated with MPL (0, 5, 10, 25 μM) for 48 h and examined by flow cytometric analysis (FACS) after staining the cells with PI. The Fig. and data present MPL-induced change in cell distribution in various phases of the cell cycle, here shown as percentage of cells in G1, S and G2/M phases. Each value represents mean±SEM of 2 independent determinations.
The effect of MPL on the cell cycle was determined using standard flow cytometry analysis protocols and procedures. Briefly, 0.7×10^6 […] cells seeded in […] flasks and allowed to adhere overnight were treated with MPL for 24 or 48 h. Cells were collected with trypsinization and pooled with the cells floating in the medium. The cell suspensions were centrifuged, washed with PBS and fixed with methanol. Cells were then washed, resuspended in propodium iodide and ribonuclease A in PBS for 30 min at room temperature and analyzed by flow cytometry (Becton Dickinson FACSort).

mTOR and p70S6K = experiment: Western blot of mTOR and p70S6K phosphorylation in OVCAR-3 cells; format: cell-based, human; conditions: 10 μM MPL for 1, 4 or 24 hours
Protocol: Western blot analysis of cell lysates prepared from OVCAR-3 cells treated with 10 μM MPL for 1, 4 or 24 hours under cell culture conditions.

[6] = test system: HEK (Human Embryonic Kidney); experiment: SRB cell proliferation assay, HEK; format: cell-based
Protocol: as §1

**Q.** Which results are given for `C[C@](C#N)(COc1cc(C#N)ccc1C(F)(F)F)NC(=O)c1ccc(SC(F)(F)F)cc1` [MPL, N-[(1S)-1-Cyano-2-(5-cyano-2-trifluoromethyl-phenoxy)-1-methyl-ethyl]-4-trifluoromethylsulfanyl-benzamide]?
**A.** tumor growth, initial trial (OVCAR-3 tumors; 25 mg/kg i.p., three times weekly (trial with 2.5 or 25 mg/kg)): particularly effective; tumor growth (OVCAR-3 tumors; 50 mg/kg dose (both i.p. and oral), three times weekly): profoundly retarding tumor growth; tumor growth, second trial (OVCAR-3 tumors; 50 mg/kg i.p. (trial with 25 and 50 mg/kg)): more effective in retarding tumor growth; doses at which anticancer effects are observed in animal models (OVCAR-3 tumors; animal models): 5 to 50 mg/kg; tumor histology (OVCAR-3 tumors; tumor tissue from the in vivo trials): massive areas of tumor cell death; also recorded: extensive necrosis; cellular ATP levels (OVCAR-3 or A2780 cells [1]): reduction in ATP levels; IC50 ([2]; HUVEC = human umbilical vein endothelial cells (Table 3), read-out: IC50 μM HUVEC): 65 µM; IC50 ([2]; Homo sapiens, HUVEC (Table 2), read-out: IC50 in suppressing proliferation): 87 µM; IC50 ([2]; Homo sapiens, HUVEC, 72 h, SRB assay (Table 1), read-out: IC50): 87.8 µM; formation of vacuoles (autophagy) [3]: formation of vacuoles; IC50 (A2780 cells; A2780, human epithelial ovarian cancer (Table 3), read-out: IC50 μM A2780): 11.3 ± 0.9 µM; IC50 (A2780 cells; Homo sapiens, A2780, ovarian cancer, 72 h, SRB assay (Table 1), read-out: IC50): 10 µM; antiproliferative action on chemo-resistant cell lines (cancer cell lines; ovarian chemo-resistant, glioma temozolimide resistant, breast cancer tamoxifen resistant cells): sensitive; antiproliferative activity, cancer cell lines versus normal cells (cancer cell lines; results of Table 2): high antiproliferative activity in cancer cell lines, whereas, normal cells are far less affected; IC50 (PET cells (mesothelioma); mesothelioma (Table 2), read-out: IC50 in suppressing proliferation): 26 µM; IC50 (PET cells (mesothelioma); mesothelioma, 72 h, SRB assay (Table 1), read-out: IC50): 26.3 µM; replication of PET cells (PET cells (mesothelioma); highly resistant to chemotherapy): profoundly suppressed; IC50 (SKOV-3 cells; SKOV-3, ovarian cancer (Table 2), read-out: IC50 in suppressing proliferation): 31.2 ± 0.76 µM; IC50 (SKOV-3 cells; SKOV-3, ovarian cancer, 72 h, SRB assay (Table 1), read-out: IC50): 29.3 µM; IC50 (3T3 fibroblast): 12.4 ± 0.37 µM; expression of LC3-II (autophagy) (U87 glioma cells): increased expression of LC3-II; IC50 (1A9 cells; 1A9, ovarian cancer (Table 2), read-out: IC50 in suppressing proliferation): 2.5 ± 0.45 µM; IC50 (1A9 cells; 1A9, ovarian cancer, 72 h, SRB assay (Table 1), read-out: IC50): 1.8 µM; clinical tolerance ([4]; 1000 mg of MPL per kg of body weight per 24 hours, mammals): well tolerated; dose tolerated by animals when used as an anthelmintic ([4]; animals): up to 2000 mg/kg; single-dose toxicity ([4]; single dose): > 2000 mg per kg of body weight; percentage of cells in the G2-M phase, vehicle treated group versus treated group (OVCAR-3 or A2780 cells [5]; 25 μM MPL): more than three times higher; cell cycle progression (OVCAR-3 or A2780 cells [5]; concentration and time-dependent): arrested in the G1 phase; phosphorylation [activation] of mTOR and p70S6K (mTOR and p70S6K): inhibition of phosphorylation; IC50 ([6]; HEK (Table 2), read-out: IC50 in suppressing proliferation): 34.6 ± 0.86 µM; IC50 ([6]; HEK, 72 h, SRB assay (Table 1), read-out: IC50): 50.5 µM
